The source of these data is patent US20130158043A1, “PAK INHIBITORS FOR THE TREATMENT OF CANCER” (AFRAXIS, INC., priority 2011, published 2013).

Common to all, as to assay: In vitro PAK inhibition assay (Z'-LYTE, SelectScreen Kinase Profiling)
Assay type in all cases: biochemical

One experiment addresses PAK2 (PAK65) (Homo sapiens, UniProt Q13177). As for the experimental part:
(§1) Compounds are screened in 1% DMSO (final) in the well. For 10 point titrations, 3-fold serial dilutions are conducted. All Peptide/Kinase Mixtures are diluted to a 2× working concentration in the appropriate Kinase Buffer
The 2×PAK2 (PAK65)/Ser/Thr 20 mixture is prepared in 50 mM HEPES pH 7.5, 0.01% BRIJ-35, 10 mM MgCl2, 1 mM EGTA. The final 10 μL Kinase Reaction consists of 0.29-6 ng PAK2 (PAK65) and 2 μM Ser/Thr 20 in 50 mM HEPES pH 7.5, 0.01% BRIJ-35, 10 mM MgCl2, 1 mM EGTA.
(§2) Add the following solutions to a well in a 384-well plate: 2.5 μL of 4× Test Compound OR (100 nL 100× Test Compound plus 2.4 μL kinase buffer) • 5 μL of 2× Peptide/Kinase (PAK) Mixture • 2.5 μL of 4×ATP Solution • 2. Shake the plate for 30-seconds • 3. Incubate the PAK Kinase Reaction at room temperature for 60-minutes • 4. Add 5 μL of Development Reagent Solution to each well • 5. Shake the plate for 30-seconds • 6. Incubate the Development Reaction for 60-minutes • 7. Determine the fluorescence using a fluorescence plate reader • 8. Analyze the fluorescence data
(§3) SelectScreen® Kinase Profiling Service uses XLfit from IDBS.

For another experiment, the target named is PAK3 (Homo sapiens, UniProt O75914). The method, then: as §1
Sequence of PAK3 (O75914 whole entry): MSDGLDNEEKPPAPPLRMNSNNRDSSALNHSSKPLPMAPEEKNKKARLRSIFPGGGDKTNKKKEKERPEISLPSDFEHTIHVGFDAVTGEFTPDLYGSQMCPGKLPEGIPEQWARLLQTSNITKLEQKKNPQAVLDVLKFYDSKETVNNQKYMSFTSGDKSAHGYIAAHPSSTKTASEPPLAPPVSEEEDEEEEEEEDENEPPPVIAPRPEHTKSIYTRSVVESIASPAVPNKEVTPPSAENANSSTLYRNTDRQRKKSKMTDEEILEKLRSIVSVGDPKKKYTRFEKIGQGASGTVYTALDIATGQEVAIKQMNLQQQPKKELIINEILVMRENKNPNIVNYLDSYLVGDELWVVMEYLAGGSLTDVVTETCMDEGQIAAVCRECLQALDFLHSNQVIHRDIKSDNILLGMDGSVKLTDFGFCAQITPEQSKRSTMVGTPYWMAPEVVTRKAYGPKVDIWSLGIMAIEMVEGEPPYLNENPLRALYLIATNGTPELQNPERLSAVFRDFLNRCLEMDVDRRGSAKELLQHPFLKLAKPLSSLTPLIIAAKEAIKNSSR
The 2×PAK3/Ser/Thr 20 mixture is prepared in 50 mM HEPES pH 7.5, 0.01% BRIJ-35, 10 mM MgCl2, 1 mM EGTA.
as §2, §3

Another experiment concerns the target PAK-4 (Homo sapiens, UniProt O96013). As to conditions: read-out: PAK4 IC50. The method, then:
as §1
The 2X PAK-4/Ser/Thr 20 mixture is prepared in 50 mM HEPES pH 7.5, 0.01% BRIJ-35, 10 mM MgCl2, 1 mM EGTA. The final 10 μL Kinase Reaction consists of 0.1-0.75 ng PAK-4 and 2 μM Ser/Thr 20 in 50 mM HEPES pH 7.5, 0.01% BRIJ-35, 10 mM MgCl2, 1 mM EGTA. After the 1 hour Kinase Reaction incubation, 5 μL of a 1:256 dilution of Development Reagent A is added.
as §2, with “Bar-coded Corning, low volume NBS, black 384-well plate (Corning Cat. #3676) • 1. Add the” for “Add the”
SelectScreen® Kinase Profiling Service uses XLfit from IDBS. The dose response curve is curve fit to model number 205 (sigmoidal dose-response model).

The next experiment addresses PAK1 (Homo sapiens, UniProt Q13153). The method, then: as §1
The 2×PAK1/Ser/Thr 19 mixture is prepared in 50 mM HEPES pH 7.5, 0.01% BRIJ-35, 10 mM MgCl2, 1 mM EGTA.
as §2, §3

Sequence of PAK2 (PAK65) (Q13177 whole entry): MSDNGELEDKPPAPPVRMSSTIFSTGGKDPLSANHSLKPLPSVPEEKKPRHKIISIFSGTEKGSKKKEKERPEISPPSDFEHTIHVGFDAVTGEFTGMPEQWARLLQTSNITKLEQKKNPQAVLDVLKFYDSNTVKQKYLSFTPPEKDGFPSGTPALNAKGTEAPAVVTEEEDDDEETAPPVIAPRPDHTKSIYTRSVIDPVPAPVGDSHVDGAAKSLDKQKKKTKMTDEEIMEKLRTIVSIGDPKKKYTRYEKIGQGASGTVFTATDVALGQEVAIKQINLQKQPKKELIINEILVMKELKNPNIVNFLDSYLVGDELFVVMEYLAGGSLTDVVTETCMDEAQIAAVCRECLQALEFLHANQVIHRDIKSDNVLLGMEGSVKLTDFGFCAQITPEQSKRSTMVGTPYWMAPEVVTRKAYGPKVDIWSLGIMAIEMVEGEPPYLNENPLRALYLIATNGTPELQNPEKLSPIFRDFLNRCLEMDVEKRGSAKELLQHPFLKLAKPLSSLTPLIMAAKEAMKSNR
Sequence of PAK1 (Q13153 whole entry): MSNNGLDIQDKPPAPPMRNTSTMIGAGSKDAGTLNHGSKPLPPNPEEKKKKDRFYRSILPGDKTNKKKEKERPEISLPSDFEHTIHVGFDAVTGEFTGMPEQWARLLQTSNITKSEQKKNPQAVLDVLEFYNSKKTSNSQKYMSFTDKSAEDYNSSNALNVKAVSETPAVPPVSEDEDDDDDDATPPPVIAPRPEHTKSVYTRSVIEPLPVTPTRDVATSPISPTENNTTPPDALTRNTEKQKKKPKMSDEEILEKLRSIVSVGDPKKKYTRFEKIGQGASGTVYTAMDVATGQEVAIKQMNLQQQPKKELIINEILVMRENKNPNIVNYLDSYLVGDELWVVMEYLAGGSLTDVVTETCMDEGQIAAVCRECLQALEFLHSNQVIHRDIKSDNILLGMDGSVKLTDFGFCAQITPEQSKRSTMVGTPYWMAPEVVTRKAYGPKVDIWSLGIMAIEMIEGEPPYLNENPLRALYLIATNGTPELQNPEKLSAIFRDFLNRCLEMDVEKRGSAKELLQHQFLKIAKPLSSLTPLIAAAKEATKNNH
Sequence of PAK-4 (O96013 whole entry): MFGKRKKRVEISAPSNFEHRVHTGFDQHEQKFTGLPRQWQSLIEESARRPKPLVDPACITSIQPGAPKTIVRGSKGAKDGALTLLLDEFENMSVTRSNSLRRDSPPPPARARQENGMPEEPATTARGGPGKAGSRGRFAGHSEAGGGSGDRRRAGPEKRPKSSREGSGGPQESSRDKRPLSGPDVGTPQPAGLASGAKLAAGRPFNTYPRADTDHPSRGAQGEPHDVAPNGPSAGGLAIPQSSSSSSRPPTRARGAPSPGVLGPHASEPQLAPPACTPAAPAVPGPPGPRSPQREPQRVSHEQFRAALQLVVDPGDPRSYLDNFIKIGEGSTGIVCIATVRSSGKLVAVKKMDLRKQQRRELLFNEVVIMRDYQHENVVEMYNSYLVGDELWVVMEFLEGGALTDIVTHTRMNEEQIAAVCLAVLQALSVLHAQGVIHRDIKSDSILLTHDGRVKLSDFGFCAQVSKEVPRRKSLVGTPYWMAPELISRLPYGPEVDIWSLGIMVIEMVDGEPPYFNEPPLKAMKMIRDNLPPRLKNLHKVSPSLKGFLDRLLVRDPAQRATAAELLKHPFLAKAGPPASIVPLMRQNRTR

A word on the IC50: it is the concentration that inhibits the measured activity by half. For `CN1CCN(c2ccc(Nc3ncc4ccc(=O)n(Cc5occc5C5CC5)c4n3)cc2)CC1`, the half-inhibitory concentration (IC50) against PAK2 (PAK65), against PAK3, at PAK-4 and against PAK1 was 500 to 5000 nM each time.

Take `CCn1c(=O)c(-c2ccc(-c3nnco3)cc2Cl)cc2cnc(Nc3ccc(N4CCN(C)CC4)cc3)nc21`: the IC50 against PAK2 (PAK65) is under 50 nM; at PAK3, under 50 nM; at PAK-4 it was 500 to 5000 nM; on PAK1, under 50 nM.

For `CCS(=O)(=O)c1ccccc1Cn1c(=O)ccc2cnc(Nc3ccc(N4CCN(C)CC4)cc3)nc21`, the half-maximal inhibitory concentration (IC50) at PAK2 (PAK65) fell in the range of 50 to 500 nM; against PAK3, 500 to 5000 nM; on PAK-4, 500 to 5000 nM; against PAK1 it was 50 to 500 nM.

On to `CCn1c(=O)c(-c2ccc(S(C)(=O)=O)cc2)cc2cnc(Nc3ccc(N4CCN(C)CC4)cc3)nc21`, for which the IC50 was over 5000 nM on PAK2 (PAK65), over 5000 nM against PAK3, at least 5000 nM at PAK-4 and over 5000 nM against PAK1.

Regarding `CC#Cc1cc2cnc(Nc3ccc(N4CCN(C)CC4)cc3)nc2n(Cc2c(F)cccc2C2CC2)c1=O`, the IC50 on PAK2 (PAK65) was in the range of 50 to 500 nM; against PAK3, 50 to 500 nM; on PAK-4, 500 to 5000 nM; on PAK1 it was 50 to 500 nM.

Take `CN1CCC(c2ccc(Nc3ncc4ccc(=O)n(Cc5c(F)cccc5C5CC5)c4n3)cc2)CC1`: the IC50 is 50 to 500 nM against PAK2 (PAK65), 50 to 500 nM on PAK3, 50 to 500 nM at PAK-4 and under 50 nM against PAK1.

Turning to `CCn1c(=O)c(-c2cccc(S(C)(=O)=O)c2)cc2cnc(Nc3ccc(N4CCN(C)CC4)cc3)nc21`, the IC50 against PAK2 (PAK65) is 500 to 5000 nM; on PAK3 it was 50 to 500 nM; on PAK-4, at least 5000 nM; against PAK1 it was 50 to 500 nM.

Consider `CCS(=O)(=O)c1ccccc1Cn1c(=O)c(-c2ccccc2Cl)cc2cnc(Nc3ccc(N4CCN(C)CC4)cc3)nc21`, for which the IC50 was under 50 nM against PAK2 (PAK65), under 50 nM against PAK3, 500 to 5000 nM at PAK-4 and under 50 nM against PAK1.

As for `CC#Cc1cc2cnc(Nc3ccc(N4CCN(C)CC4)cc3)nc2n(Cc2ccccc2C(F)(F)F)c1=O`, the IC50 on PAK2 (PAK65) lay in the range of 50 to 500 nM; against PAK3, 500 to 5000 nM; at PAK-4 it was 500 to 5000 nM; against PAK1, 50 to 500 nM.

Regarding `CCn1c(=O)c(-c2ccc(-c3cccnc3F)cc2Cl)cc2cnc(Nc3ccc(N4CCN(C)CC4)cc3)nc21`, the IC50 is under 50 nM on PAK2 (PAK65), under 50 nM against PAK3, 50 to 500 nM on PAK-4 and under 50 nM at PAK1.

Take `CCn1c(=O)c(-c2ccc(-c3cncs3)cc2Cl)cc2cnc(Nc3ccc(N4CCN(C)CC4)cc3)nc21`: at PAK-4, the concentration for half-maximal inhibition (IC50) was at least 5000 nM.

As to `CCn1c(=O)c(-c2ccc(-c3noc(C)n3)cc2Cl)cc2cnc(Nc3ccc(C4CCN(C)CC4)cc3)nc21`, the concentration for half-maximal inhibition (IC50) was under 50 nM at PAK2 (PAK65), under 50 nM against PAK3, 500 to 5000 nM on PAK-4 and under 50 nM against PAK1.

On to `CCn1c(=O)c(-c2ccc(-c3ccnc(C(N)=O)c3)cc2Cl)cc2cnc(Nc3ccc(C4CCN(C)CC4)cc3)nc21`, for which the IC50 is 50 to 500 nM against PAK2 (PAK65), 50 to 500 nM against PAK3, at least 5000 nM at PAK-4 and 50 to 500 nM against PAK1.

As to `CCn1c(=O)c(-c2ccc(-c3noc(C)n3)cc2Cl)cc2cnc(Nc3ccc(C4CCNCC4)cc3)nc21`, the IC50 was under 50 nM on PAK2 (PAK65), 50 to 500 nM on PAK3, 500 to 5000 nM on PAK-4 and under 50 nM on PAK1.

Consider `CCn1c(=O)c(-c2ccc(-c3cnc(C)s3)cc2Cl)cc2cnc(Nc3ccc(C4CCN(C)CC4)cc3)nc21`, for which the concentration for half-maximal inhibition (IC50) against PAK2 (PAK65) is under 50 nM; on PAK3, under 50 nM; on PAK-4, 500 to 5000 nM; against PAK1, under 50 nM.

Take `CCN1CCC(c2ccc(Nc3ncc4cc(-c5ccc(-c6cccnc6C)cc5Cl)c(=O)n(CC)c4n3)cc2)CC1`: the IC50 on PAK2 (PAK65) is under 50 nM; against PAK3, under 50 nM; on PAK-4, at least 5000 nM; at PAK1, under 50 nM.

On to `CCN1CCC(c2ccc(Nc3ncc4cc(-c5ccc(-c6ccc(C)nc6)cc5Cl)c(=O)n(CC)c4n3)cc2)CC1`, for which the 50% inhibitory concentration (IC50) against PAK2 (PAK65) was under 50 nM; at PAK3 it was under 50 nM; at PAK-4, 500 to 5000 nM; against PAK1, under 50 nM.

For `CCn1c(=O)c(-c2ccc(-c3cccnc3)cc2Cl)cc2cnc(Nc3ccc(CCN(C)C)cc3)nc21`, the IC50 was under 50 nM at PAK2 (PAK65), under 50 nM against PAK3, 500 to 5000 nM on PAK-4 and under 50 nM at PAK1.

As to `CCn1c(=O)c(-c2ccc(-c3cnc(C)s3)cc2Cl)cc2cnc(Nc3ccc(C4CCNCC4)cc3)nc21`, the half-inhibitory concentration (IC50) on PAK2 (PAK65) is under 50 nM; against PAK3, under 50 nM; on PAK-4, 500 to 5000 nM; on PAK1, under 50 nM.

As to `CCn1c(=O)c(-c2ccc(-c3cccnc3C)cc2Cl)cc2cnc(Nc3ccc(C4CCNCC4)cc3)nc21`, the 50% inhibitory concentration (IC50) on PAK2 (PAK65) was under 50 nM; on PAK3 it was under 50 nM; on PAK-4, at least 5000 nM; on PAK1 it was under 50 nM.

Turning to `CCn1c(=O)c(-c2ccc(-c3ccnc(C)c3)cc2Cl)cc2cnc(Nc3ccc(C4CCNCC4)c(F)c3)nc21`, the concentration for half-maximal inhibition (IC50) was under 50 nM against PAK2 (PAK65), 50 to 500 nM at PAK3, 500 to 5000 nM on PAK-4 and under 50 nM against PAK1.

For the compound `CCn1c(=O)c(-c2ccc(-c3cccnc3F)cc2Cl)cc2cnc(Nc3ccc(C4CCNCC4)cc3)nc21`, the half-maximal inhibitory concentration (IC50) against PAK2 (PAK65) is under 50 nM; against PAK3, under 50 nM; at PAK-4, 50 to 500 nM; on PAK1, under 50 nM.

For `CCn1c(=O)c(-c2ccc(-c3cccnc3F)cc2Cl)cc2cnc(Nc3ccc(C4CCN(C)CC4)cc3)nc21`, the IC50 on PAK2 (PAK65) was under 50 nM; against PAK3 it was under 50 nM; on PAK-4 it was 50 to 500 nM; on PAK1 it was under 50 nM.

Regarding `CCn1c(=O)c(-c2ccc(-c3cccnc3F)cc2Cl)cc2cnc(Nc3ccc(C4CCN5CCCC5C4)cc3)nc21` (stereo not shown), the concentration for half-maximal inhibition (IC50) was under 50 nM against PAK2 (PAK65), under 50 nM at PAK3, 500 to 5000 nM at PAK-4 and under 50 nM against PAK1.

Turning to `CCn1c(=O)c(-c2ccc(-c3noc(C)n3)cc2Cl)cc2cnc(Nc3ccc(CCN(C)C)cc3)nc21`, the half-maximal inhibitory concentration (IC50) against PAK2 (PAK65) is under 50 nM; at PAK3, under 50 nM; at PAK-4 it was 500 to 5000 nM; against PAK1, under 50 nM.

Take `CCN1CCC(c2ccc(Nc3ncc4cc(-c5ccc(-c6noc(C)n6)cc5Cl)c(=O)n(CC)c4n3)cc2)CC1`: the IC50 is under 50 nM on PAK2 (PAK65), under 50 nM against PAK3, 500 to 5000 nM at PAK-4 and under 50 nM against PAK1.

As to `Cc1nc(-c2ccc(-c3cc4cnc(Nc5ccc(C6CCN(C)CC6)cc5)nc4n(C)c3=O)c(Cl)c2)no1`, the IC50 on PAK2 (PAK65) is under 50 nM; against PAK3, under 50 nM; on PAK-4 it was at least 5000 nM; at PAK1 it was under 50 nM.

With `CCn1c(=O)c(-c2ccc(-c3cccnc3C)cc2)cc2cnc(Nc3ccc(C4CCN(C)CC4)cc3)nc21`, the IC50 against PAK2 (PAK65) is 500 to 5000 nM; against PAK3, 500 to 5000 nM; at PAK-4, at least 5000 nM; at PAK1, 500 to 5000 nM.

Consider `CCn1c(=O)c(-c2ccc(-c3cccnc3C)cc2F)cc2cnc(Nc3ccc(C4CCN(C)CC4)cc3)nc21`, for which the concentration for half-maximal inhibition (IC50) against PAK2 (PAK65) was 50 to 500 nM; at PAK3, 50 to 500 nM; on PAK-4, at least 5000 nM; against PAK1 it was 50 to 500 nM.

For the compound `CCn1c(=O)c(-c2ccc(-c3cnc(C)cn3)cc2Cl)cc2cnc(Nc3ccc(C4CCN(C)CC4)cc3)nc21`, the IC50 is under 50 nM on PAK2 (PAK65), under 50 nM at PAK3, 50 to 500 nM on PAK-4 and under 50 nM against PAK1.

Regarding `CCn1c(=O)c(-c2ccc(-c3nccnc3C)cc2Cl)cc2cnc(Nc3ccc(C4CCN(C)CC4)cc3)nc21`, the half-maximal inhibitory concentration (IC50) is under 50 nM against PAK2 (PAK65), under 50 nM against PAK3, 500 to 5000 nM on PAK-4 and under 50 nM against PAK1.
